The results in this text go back to patent publication US20100130737A1, “Regulating Agent of GPR34 Receptor Function” (TAKEDA PHARMACEUTICAL COMPANY LIMITED, priority 2005, published 2010).

SMILES strings stand for the structures. pIC50: −log10 of the molar value. Some results are limits rather than exact numbers.

By melting point is commonly meant the temperature, or range, at which the solid turns liquid. What is called pIC50 is the IC50 on a negative log10 scale, so that one unit is a factor of ten.

One data set has as its target human GPR34 (Homo sapiens, UniProt Q9UPC5). As to the kind of experiment: Human GPR34 antagonist activity indicated by changes in intracellular calcium concentration (FLIPR). Type of data set: cell-based. More on the design: expressed in transfected cells; host or cells: CHO cells (human GPR34CHO line) stably transfected with pCR3.1 human lung Gα16. The note with it: CHO cells expressing human GPR34/Gα16, against 2 μM lysoPS final concentration, Fluo-3AM. How it is done: CHO cells expressing human GPR34/Gα were diluted to 3×10^4/100 μl in cell culture medium [nucleic acid-free Minimum Essential Alpha Medium (Invitrogen) containing 10% dialyzed fetal bovine serum (Invitrogen) 0.5 mg/ml Geneticin (Invitrogen), penicillin and streptomycin (Invitrogen)], dispensed 100 μl per well into a Black walled 96-well plate (Costar), and cultured overnight in a CO2 incubator. Changes in intracellular calcium concentration were measured with a FLIPR (Molecular Device) by the methods described below.
50 μg of Fluo-3AM (Dojindo) was dissolved in 21 μl of DMSO (Dojindo), an equal amount of 20% pluronic acid (Molecular Probes) was added and mixed, and this was added to 10.6 ml of assay buffer [prepared by adding 20 ml of 1 M HEPES (pH 7.4, Dojindo) to HBSS (Invitrogen), and then adding 10 ml of a solution obtained by dissolving 710 mg of Probenecid (Sigma) in 5 ml of 1 N NaOH and then adding and mixing 5 ml of the HBSS/HEPES solution)] with 105 μl of fetal bovine serum added thereto to prepare a fluorescent dye solution. The medium was removed from the cell plate, 100 μl per well of the fluorescent dye solution was immediately poured in, and the cells were cultured for 1 hour in a CO2 incubator to incorporate the fluorescent dye into the cells. After culture, the cells were washed with the aforementioned assay buffer. The compound was dissolved in DMSO (Wako Pure Chemical), diluted with DMSO as necessary, added to the aforementioned assay buffer to the target concentration and poured into the plate. To measure antagonist activity, 8 μM lysophosphatidyl serine (lysoPS, Alexis) solution (2 μM final concentration during reaction) was poured into the plate, which was set in the FLIPR. Following these preliminaries, the agonist effect was measured in the FLIPR by measuring changes in intracellular calcium concentration up to 180 seconds after addition of the sample, and after 200 seconds lysoPS was added and the antagonist effect was measured. In the case of the agonist effect, the EC50 value of the added compound was calculated from the dose reaction curve using changes in fluorescent strength from 0 to 180 seconds after the start of the reaction. In the case of the antagonist effect, the IC50 was calculated from the dose reaction curve using changes in maximum fluorescent strength after 200 to 380 seconds of reaction time. The data was analyzed using “GraphPad PRISM4”.
Background: A change in cytosolic calcium serves as a functional read-out for many receptors and channels.

human GPR34, sequence (Q9UPC5 whole entry): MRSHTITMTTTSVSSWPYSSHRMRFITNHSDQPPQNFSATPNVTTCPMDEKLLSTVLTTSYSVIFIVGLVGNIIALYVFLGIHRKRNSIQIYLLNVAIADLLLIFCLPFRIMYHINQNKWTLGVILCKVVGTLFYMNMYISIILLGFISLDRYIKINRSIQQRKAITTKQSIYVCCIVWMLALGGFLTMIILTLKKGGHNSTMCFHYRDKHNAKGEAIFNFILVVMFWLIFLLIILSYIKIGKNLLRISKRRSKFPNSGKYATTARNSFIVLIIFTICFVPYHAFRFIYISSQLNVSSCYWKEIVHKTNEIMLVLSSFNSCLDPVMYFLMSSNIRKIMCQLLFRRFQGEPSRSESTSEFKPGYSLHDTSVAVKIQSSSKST

Molecule `O=C(N[C@@H](Cc1ccc(OCc2ccccc2)cc1)C(=O)O)c1cn2cc(-c3ccc(Cl)cc3)ccc2n1` [Example E1, O-Benzyl-N-{[6-(4-chlorophenyl)imidazo[1,2-a]pyridin-2-yl]carbonyl}tyrosine] displayed a melting point of 270 to 271 °C. The negative-log IC50 (pIC50) at human GPR34 was at least 6.00.
The like results for `O=C(N[C@@H](Cc1ccc(OCc2ccccc2)cc1)C(=O)O)c1cn2cc(/C=C/c3ccc(Cl)cc3)ccc2n1` [Example E41, O-Benzyl-N-({6-[(E)-2-(4-chlorophenyl)ethenyl]imidazo[1,2-a]pyridin-2-yl}carbonyl)tyrosine] were, in that order, 267 to 270 °C and at least 6.00.
Molecule `O=C(N[C@@H](Cc1ccc(OCc2ccccc2)cc1)C(=O)O)c1cn2nc(-c3ccc(Cl)cc3)ccc2n1` [Example E3, O-Benzyl-N-{[6-(4-chlorophenyl)imidazo[1,2-b]pyridazin-2-yl]carbonyl}tyrosine] had a melting point of 242 to 243 °C. On human GPR34, the pIC50 is at least 6.00.
The like results for `CN(C(=O)c1cn2cc(-c3ccc(Cl)cc3)ccc2n1)[C@@H](Cc1ccc(OCc2ccccc2)cc1)C(=O)O` [Example E12, O-Benzyl-N-{[6-(4-chlorophenyl)imidazo[1,2-a]pyridin-2-yl]carbonyl}-N-methyltyrosine] were, in that order, 216 °C and at least 6.00.
Taken in the same sequence, the figures for `O=C(N[C@@H](Cc1ccc(NCc2ccccc2)cc1)C(=O)O)c1cn2cc(-c3ccc(Cl)cc3)ccc2n1` [Example E5, 4-(Benzylamino)-N-([6-(4-chlorophenyl)imidazo[1,2-a]pyridin-2-yl]carbonyl}phenylalanine] were 260 °C and at least 6.00.
In turn, `O=C(N[C@@H](Cc1ccc(OCc2ccccc2)cc1)C(=O)O)c1cc2cc(-c3ccc(Cl)cc3)ccc2o1` [Example C148, O-Benzyl-N-{[5-(4-chlorophenyl)-1-benzofuran-2-yl]carbonyl}tyrosine] yielded a melting point of 250 to 251 °C. For the same molecule, the negative logarithm of the IC50 (pIC50) at human GPR34 was at least 6.00.
Taken in the same sequence, the figures for `Cc1c(C(=O)N[C@@H](Cc2ccc(OCc3ccccc3)cc2)C(=O)O)oc2ccc(-c3ccc(Cl)cc3)cc12` [Example C142, O-Benzyl-N-{[5-(4-chlorophenyl)-3-methyl1-benzofuran-2-yl]carbonyl}tyrosine] were 209 to 210 °C and at least 6.00.
In the case of `O=C(N[C@@H](Cc1ccc(OCc2ccccc2)cc1)C(=O)O)c1cc2cc(-c3ccc(Cl)cc3)ccc2[nH]1` [Example C165, O-Benzyl-N-{[5-(4-chlorophenyl)-1H-indol-2-yl]carbonyl}tyrosine], the melting point is 239 to 240 °C. The pIC50 on human GPR34 was at least 6.00.
The like results for `N#Cc1ccc(COc2ccc(C[C@H](NC(=O)c3cn4ccc(-c5ccc(Cl)cc5)cc4n3)C(=O)O)cc2)cc1` [Example E64, N-{[7-(4-Chlorophenyl)imidazo[1,2-a]pyridin-2-yl]carbonyl}-O-(4-cyanobenzyl)tyrosine] were, in that order, 263 °C and at least 6.00.
Taken in the same sequence, the figures for `O=C(N[C@@H](Cc1ccc(OCc2ccccc2)cc1)C(=O)O)c1nc2ccc(-c3ccc(Cl)cc3)cn2c1Cl` [Example E37, O-Benzyl-N-{[3-chloro-6-(4-chlorophenyl)imidazo[1,2-a]pyridin-2-yl]carbonyl}tyrosine] were 242 to 244 °C and at least 6.00.
The like results for `O=C(N[C@@H](Cc1ccc(OCc2ccccc2F)cc1)C(=O)O)c1cn2ccc(-c3ccc(Cl)cc3)cc2n1` [Example E47, N-{[7-(4-Chlorophenyl)imidazo[1,2-a]pyridin-2-yl]carbonyl}-O-(2-fluorobenzyl)tyrosine] were, in that order, 250 to 252 °C and at least 6.00.
With `O=C(N[C@@H](Cc1ccc(OCc2ccccc2)cc1)C(=O)O)c1cn2cc(-c3ccccc3F)ccc2n1` [Example E19, O-Benzyl-N-{[6-(2-fluorophenyl)imidazo[1,2-a]pyridin-2-yl]carbonyl}tyrosine], the melting point was found to be 238 °C. Further, the pIC50 at human GPR34 is at least 6.00.
